Results published in paper PMC8757871, “Bridging the Antimicrobial Activity of Two Lactoferricin Derivatives in E. coli and Lipid-Only Membranes” (Frontiers in Medical Technology, 2021).

Test: ANTS/DPX dye leakage assay and equi-activity partitioning analysis
Conditions: for K (mole fraction partitioning coefficient) / RB ([P]B/[L]) / [P]W (peptide concentration in the water phase): fit of Equation (4), [L] = (1−20) mM, [P] = (0.05−2) mM, HBS
Protocol: All hydrated samples were equilibrated for 1 h at 40°C followed by 5 freeze-and-thaw cycles using liquid N2 and intermittent vortex-mixing. Large unilamellar vesicles (LUVs) were obtained by 31 extrusions with a handheld mini extruder (Avanti Polar Lipids, Alabaster, AL) using a 100 nm pore diameter polycarbonate filter. Vesicle size and polydispersity were determined via DLS using a Zetasizer NANO ZSP (Malvern Panalytical, Malvern, UK). ANTS/DPX-containing vesicles were separated from free ANTS/DPX by exclusion chromatography using a column filled with SephadexTM G-75 (Amersham Biosciences, Little Chalfont, UK) fine gel swollen in iso-osmotic HBS. Phospholipid concentrations for all samples were determined by phosphate analysis.
Dye leakage experiments were performed combining previously reported protocols ([20], [27]). In brief, the dependencies of ANTS/DPX leakage on lipid and peptide concentration were determined by first incubating lipid vesicles ([L] = 1, 4, 10, and 20 mM) with peptides [[P] = (0.025−2) mM] at 37°C for 1 h using a gently rocking shaker (Eppendorf Thermomixer C, Hamburg, Germany). Similar time protocols were applied previously ([27]) and are justified here based on separate time-resolved leakage experiments (Supplementary Figure 3) and Trp-fluorescence measurements (Figure 3), showing that a quasi steady state has been reached after 1 h. Before measurements, lipid/peptide solutions were diluted with HBS to a lipid concentration of 50 μM, and every measurement was repeated at least twice. Vesicle size was checked after each incubation period using DLS. Samples were excited at λ= 360 nm, and the intensity of the fluorescence emission peak at λ= 530 nm, Ip, was recorded with a slit width of 10 nm for both excitation and emission monochromators. Measurements were performed in quartz cuvettes in 2 ml of the iso-osmotic buffer on a Cary Eclipse Fluorescence Spectrophotometer (Varian/Agilent Technologies, Palo Alto, CA). The percentage of leakage, E%, was calculated according to the relation
(1) E%=Ip-Imin/Imax-Imin,
where Imin is the initial fluorescence without peptide, and Imax is the fluorescence corresponding to 100% leakage determined through the addition of a 1 vol% solution of Triton X-100. The initial, monotonic increase of E% values with increasing [P] was interpolated with a sigmoidal function. This enabled us to obtain peptide and lipid concentrations leading to a specific E% value, which can in turn be used to calculate the partitioning parameters (see section 2.3.1).
(4) [P]=RB[W]/K︸[P]W+RB[L]︸[P]B=RB([W]/K+[L]),

[1] = POPE/POPG LUVs, leakage 10%, 1 h at 37°C
[2] = POPE/POPG LUVs, leakage 15%, 1 h at 37°C
[3] = POPE/POPG/TOCL LUVs, leakage 10%, 1 h at 37°C
[4] = POPE/POPG/TOCL LUVs, leakage 20%, 1 h at 37°C
[5] = POPE/POPG/TOCL LUVs, leakage 40%, 1 h at 37°C

## H-FWRIRIRR-NH2 [LF11-215, H-FWRIRIRR-NH2]
PE-containing systems, [L] ≃20 mM
  maximum amount of partitioned AMPs: < 80%
POPE/POPG LUVs [L] = 50 µM, [P] = 0.5 µM, converging after 25 min
  ANTS/DPX dye efflux, time-resolved: ~5%
[1]
  K (mole fraction partitioning coefficient): 1.37 ± 0.16 ×10^4
  RB ([P]B/[L]): 9.8 ± 0.4 ×10^−3
  [P]W (peptide concentration in the water phase): 0.040 ± 0.006 mM
[2]
  K (mole fraction partitioning coefficient): 0.75 ± 0.15 ×10^4
  RB ([P]B/[L]): 10.7 ± 1.0 ×10^−3
  [P]W (peptide concentration in the water phase): 0.08 ± 0.02 mM
POPE/POPG vesicles, 1 h at 37°C, all [P] and [L] tested
  total ANTS/DPX efflux: ≤ 40%
[3]
  K (mole fraction partitioning coefficient): 1.7 ± 0.8 ×10^4
  RB ([P]B/[L]): 5.6 ± 0.7 ×10^−3
  [P]W (peptide concentration in the water phase): 0.018 ± 0.010 mM
[4]
  K (mole fraction partitioning coefficient): 1.5 ± 0.3 ×10^4
  RB ([P]B/[L]): 7.2 ± 0.5 ×10^−3
  [P]W (peptide concentration in the water phase): 0.026 ± 0.007 mM
[5]
  K (mole fraction partitioning coefficient): 1.5 ± 0.4 ×10^4
  RB ([P]B/[L]): 9.6 ± 0.9 ×10^−3
  [P]W (peptide concentration in the water phase): 0.036 ± 0.012 mM
